Experiments:
[1] = Maximum concentration of coating liquid for measuring glucose (solubility of coupler)
Description: As an example of a coating liquid composition for measuring glucose, an experiment was conducted to determine a maximum concentration of a coating liquid.
Basic Composition (in 100 mL Water)

[2] = Time-dependent change in reflection-absorbance of test piece (Example 7); details: test piece with MAOS, succinate buffer pH 5.0; human blood, hematocrit 40%, 400 mg/dL blood glucose; FIG. 3
Description: (§1) Using a coating liquid having a composition shown in the following Table 5, a polyether sulfone membrane (membrane thickness: 130 μm) manufactured by Terumo Corporation was coated by Kiss-Coat method, and dried for 18 hours at 37° C. Then, the membrane was cut to give a 1-cm square as a test piece.
The evaluation using blood was conducted by fixing the test piece in a reflectance spectrophotometer, adding 1 μL of specimen dropwise onto the test membrane from above, and measuring reflection-absorbance continuously or at the predetermined time.
The time-dependent changes in the reflection-absorbance was measured using as a coupler compound 4-amino antyprine (4-AA), CP1 or CP2, the test piece prepared by the above method, and human blood adjusted to 40% of hematocrit level and 400 mg/dL of blood glucose level as specimen. It is noted from the results shown in FIG. 3 that 15 seconds was required for reflection-absorbance to become steady when using 4-AA, a conventional coupler, while less than 5 seconds was required for reflection-absorbance to become steady when using CP1, and particularly when using CP2, reflection-absorbance reached peak within only about 3 seconds. That is, it was observed that a measuring time was able to be shortened by using the reagent composition of the present invention.

[3] = Residual ratio of coupler in test piece after thermal acceleration, HPLC (Example 9); type: physicochemical; details: 60° C., 1 hour, oven under vacuum; relative to test piece before thermal acceleration; HPLC 254 nm; FIG. 5
Description: as §1, with “6,” for “5,”, “punched out” for “cut”, “circle of φ6 mm” for “1-cm square”
The test piece was placed in an oven under vacuum at 60° C. for 1 hour to be subjected to thermal acceleration. Then, the test piece was subjected to ultrasonic treatment for 10 minutes using 1 ml of an aqueous 60% acetonitrile solution, and extracted. The amount of reagent in the resultant extract was determined by HPLC under such conditions as of eluent: 60% of acetonitrile/50 mM of phosphate buffer (pH 7.5), eluent flow rate: 1 mL/minute, column temperature: 40° C., column: Hydrosphere C18 250×4.6 mm (manufactured by YMC Co., Ltd.), measuring wavelength: 254 nm, and injection volume: 20 μL. According to this method, the residual ratios of 4-AA and CP2 contained in the test piece after thermal acceleration were respectively compared with those of the test pieces before thermal acceleration. It is noted from the results shown in FIG. 5 that the residual ratio of 4-AA is not more than 70%, while the residual ratio of CP2 is approximately 100%. […]

| Solubility as compared with 4-aminoantipyrine [1] | Solubility of coupler ([1]; pH 5) [times by volume] | Compound | Time required for reflection-absorbance to become steady / reach peak [2] | Residual ratio in test piece after thermal acceleration [3] | Solubility of coupler ([1]; how many times the amounts of all reagents of the basic composition (100 mL water, TOOS, Triton X-100, citrate pH 5.0) can be increased and still give a uniform solution, coupler equimolar to 4-AA) [times by volume] |
| --- | --- | --- | --- | --- | --- |
| high solubility | 8 | Cc1c(N)c(=O)n(-c2ccc(C(=O)O)cc2)n1C [CP1, 4-amino-1-(4-carboxyphenyl)-2,3-dimethyl-5-pyrazolone] | less than 5 seconds |  |  |
| high solubility | 10 | Cc1c(N)c(=O)n(-c2ccc(S(=O)(=O)O)cc2)n1C [CP2, 4-amino-1-(4-sulfophenyl)-2,3-dimethyl-5-pyrazolone] | about 3 seconds | approximately 100% |  |
| high solubility | 10 | Cc1c(N)c(=O)n(-c2cccc(S(=O)(=O)O)c2)n1C [CP6, 4-amino-1-(3-sulfophenyl)-2,3-dimethyl-5-pyrazolone] |  |  |  |
|  |  | Cc1c(N)c(=O)n(-c2ccccc2)n1C [4-AA, 4-aminoantipyrine, reference compound] | 15 s | not more than 70% | 5 |
